Assay results: paper PMC10786919, “Design-rules for stapled peptides with in vivo activity and their application to Mdm2/X antagonists” (Nature Communications, 2024)
In brackets after ≈: the same amount, converted by molar mass. Read-outs that look alike come from different tables or passages of the source. Positions of bridges follow the written chain, without caps; N, C: chain ends. Non-standard residues stand in square brackets, D forms with d. Residues, ends and D or L forms follow the SMILES beside them. Lys(N3) = [N-]=[N+]=NCCCC[C@H](N)C(=O)O; Gla = N[C@@H](CC(C(=O)O)C(=O)O)C(=O)O; R8 = C=CCCCCCC[C@@](C)(N)C(=O)O; Cba = N[C@@H](CC1CCC1)C(=O)O; S5 = C=CCCC[C@](C)(N)C(=O)O; Ahx = NCCCCCC(=O)O; βAla = NCCC(=O)O

What was measured:
EPSA = format: physicochemical
[1] = Lactate dehydrogenase (LDH) release assay; format: cell-based
Procedure, shortened: (§1)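 A p53 β-lactamase reporter HCT116 line, 8000 cells per well, is exposed to test compounds at 0.5% final DMSO and scored for LDH leakage.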

HCT116 cells = experiment: Lactate dehydrogenase (LDH) release assay; format: cell-based
Procedure, shortened: as §1

[2] = Solubility assay (kinetic solubility, PBS pH 7); format: physicochemical
Procedure, shortened: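 Reference standards were made by diluting the 10 mM stock to 100 µM in acetonitrile:methanol:DMSO 10:80:10. Solubility in µM was calculated as the sample peak area divided by the standard peak area, multiplied by the standard concentration.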

human Mdm2 1–125 = target: T1, human Mdm2 1–125 (Homo sapiens, UniProt Q00987); experiment: Mdm2 binding by competitive fluorescence anisotropy assay (FP binding)
T1 construct: GST (N); His6 (internal); TEV cleavage site (ENLYFQG) (internal); made in house; host or cells: BL21 (DE3) Rosetta T1R Escherichia coli
Text: The TEV (tobacco etch virus) cleavage site was changed from ENLYFQS to ENLYFQG to give a fusion protein with the following sequence:
[P] is the protein concentration (Mdm2), [L] is the labeled peptide concentration, r is the anisotropy measured, r0 is the anisotropy of the free peptide, rb is the anisotropy of the Mdm2–FAM-labeled peptide complex, Kd is the dissociation constant, [L]t is the total FAM labeled peptide concentration, and [P]t is the total Mdm2 concentration. […] This value was then used to determine apparent Kd values of the respective competing ligands in subsequent competition assays in fluorescence anisotropy experiments.
The competing molecules were then titrated against the complex of the FAM-labeled peptide and protein. Apparent Kd values were determined by fitting the experimental data to equations shown below:2 r=ro+(rb−ro)×2(d^2−3e)cos(θ/3)−9/3Kd1+2(d^2−3e)cos(θ/3)−d 3 d=Kd1+Kd2+[L]st+[L]t−Pt 4 e=Lt−PtKd1+Lst+PtKd2+Kd1Kd2 5 f=−Kd1Kd2[P]t 6 θ=arcos−2d^3+9de−27f/2(d^2−3e)^3
[L]st and [L]t denote labeled ligand and total unlabeled ligand input concentrations, respectively. Kd2 is the dissociation constant of the interaction between the unlabeled ligand and the protein. In all competition experiments, it is assumed that [P]t > [L]st, otherwise considerable amounts of free labeled ligand would always be present and would interfere with measurements. […] The FAM-labeled peptide was dissolved in dimethyl sulfoxide (DMSO) at 1 mM and diluted into experimental buffer. Readings were carried out with an Envision Multilabel Reader (PerkinElmer). […] Curve-fitting was carried out using Prism 4.0 (GraphPad). […] Negative control titrations of the ligands under investigation were also carried out with the fluorescently labeled peptide (in the absence of Mdm2) to ensure no interactions were occurring between the ligands and the FAM-labeled peptide. […] Measurements were taken a minimum of three times (biological replicates) and values are reported as geometric means of the replicates.

[3] = system: p53 responsive β-lactamase reporter in HCT116 cells; experiment: cells; format: cell-based
Procedure, shortened: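 Read-out used the ToxBLAzer Dual Screen for β-lactamase driven by a stably integrated p53-responsive reporter. Assay: 8000 HCT116 cells per well at 0.5% final DMSO. Reported numbers are geometric means over a minimum of three biological replicates.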

[4] = system: Jump-In T-REx CHO-K1 BLA cells; experiment: cells; format: cell-based; conditions: for EC50: read-out: TETCHO: Counterscreen EC50
[5] = Experimental LogD (partition coefficient); conditions: for logD: not stated, Partition Coeff LogD
[6] = system: cells transiently transfected with the NanoLuc-HaloTag vector; experiment: in vitro
Procedure, shortened: (§2)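 Azido-peptide permeability was read as loss of NanoBRET signal (donor 450 nm, acceptor 610 nm) after adding NanoBret618-azide at 10 μM final.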

[7] = system: CellSensor p53RE-bla HCT-116 Cell Line; conditions: read-out: Proliferation EC50 HCT116 (On-target); HCT116
Procedure, shortened: (§3)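 Compound dilution series (10 points, 3-fold, 10 mM top stock in DMSO) tested on overnight-plated Ca Ski cells in RPMI1640/10% FBS and on blasticidin-selected p53RE-bla HCT-116 cells in McCoy's 5A; read-out was CellTiter-Glo 2.0 luminescence after room-temperature equilibration.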

Ca Ski cell line = conditions: Ca Ski
Procedure, shortened: as §3

[8] = Nanoclick permeability assay
Procedure, shortened: as §2

[9] = pH 7, aqueous buffer, kinetic from dmso stock, pH 7, PBS, read-out: Solubility
[10] = 0% FBS 4Hr, read-out: p53 reporter assay: EC50

T1 sequence (Q00987 with tags, fused parts or gaps): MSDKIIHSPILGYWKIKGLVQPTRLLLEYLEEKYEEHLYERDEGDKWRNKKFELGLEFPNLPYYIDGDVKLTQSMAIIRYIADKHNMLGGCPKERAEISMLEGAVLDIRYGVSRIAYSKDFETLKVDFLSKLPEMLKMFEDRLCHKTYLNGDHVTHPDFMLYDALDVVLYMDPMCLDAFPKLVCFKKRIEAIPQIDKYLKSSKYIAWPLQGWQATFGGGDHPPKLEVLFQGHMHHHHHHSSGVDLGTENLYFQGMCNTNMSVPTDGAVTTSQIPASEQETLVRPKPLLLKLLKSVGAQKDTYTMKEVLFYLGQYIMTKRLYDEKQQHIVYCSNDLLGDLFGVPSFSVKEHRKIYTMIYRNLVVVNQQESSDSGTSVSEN

## CC(=O)N[C@@H](CC(C)C)C(=O)N[C@H](C(=O)N[C@@H](Cc1ccccc1)C(=O)N[C@]1(C)CCCCCCC=CCCC[C@@](C)(C(=O)N[C@@H](CO)C(=O)N[C@@H](C)C(=O)N[C@@H](C)C(N)=O)NC(=O)[C@H](CC(C)C)NC(=O)[C@H](CCC(N)=O)NC(=O)[C@H](C)NC(=O)[C@H](Cc2c[nH]c3ccccc23)NC(=O)[C@H](Cc2ccc(O)cc2)NC(=O)[C@H](CCC(=O)O)NC1=O)[C@@H](C)O [MP-154]
EPSA; EPSA
  EPSA: 199 A^2
[1]; LDH: Cytotoxicity assay: EC50
  EC50: > 50.7 µM
HCT116 cells
  LDH: Cytotoxicity assay: % Effect: 34.9%
[2]; [9]
  solubility kinetic: 146 µM (≈ 254 µg/mL)
Human Mdm2 1–125; read-out: FP binding assay KD
  Kd: 0.0444 µM
[3]; 0% FBS 4Hr
  p53 reporter assay: % Effect: 150.7%
[3]; [10]
  EC50: 0.417 µM
[4]; 0% FBS 4Hr
  TETCHO: Counterscreen % Effect: 205.4%
  EC50: 27.1 µM
[5]
  logD: 2.87

## CC(=O)N[C@@H](CC(C)C)C(=O)N[C@H](C(=O)N[C@@H](Cc1ccccc1)C(=O)N[C@]1(C)CCCCCCC=CCCC[C@@](C)(C(=O)N[C@@H](CO)C(=O)N[C@@H](C)C(=O)N[C@@H](C)C(N)=O)NC(=O)[C@H](CC(C)C)NC(=O)[C@H](CCC(N)=O)NC(=O)[C@H](C)NC(=O)[C@H](Cc2c[nH]c3ccccc23)NC(=O)[C@H](Cc2ccc(O)cc2)NC(=O)[C@H](CCC(=O)O)NC1=O)[C@@H](C)O [MP-211]
EPSA
  EPSA: 201
[2]; pH 7, PBS
  Solubility: 177
Human Mdm2 1–125; read-out: FP binding assay KD
  Kd: 0.0678 µM
[3]; 0% FBS 4Hr
  p53 reporter assay: % Effect: 96.16%
[3]; [10]
  EC50: 0.731 µM
[3]; 0% FBS 16Hr
  p53 reporter assay: % Effect: 100.4%
[3]; 0% FBS 16Hr, read-out: p53 reporter assay: EC50
  EC50: 1.48 µM
[4]; 0% FBS 4Hr
  TETCHO: Counterscreen % Effect: 40.04%
  EC50: 48.5 µM
[4]; 0% FBS 16Hr
  TETCHO: Counterscreen % Effect: 114.5%
  EC50: 25.2 µM
[5]
  Partition Coeff LogD: 2.82

## CC(=O)N[C@@H](CCCCN=[N+]=[N-])C(=O)NCCC(=O)N[C@@H](CC(C)C)C(=O)N[C@H](C(=O)N[C@@H](Cc1ccccc1)C(=O)N[C@]1(C)CCCCCCC=CCCC[C@@](C)(C(=O)N[C@@H](CCO)C(=O)N[C@@H](CCO)C(=O)N[C@@H](Cc2ccccc2)C(=O)N[C@@H](CCO)C(=O)N[C@@H](CCO)C(=O)N[C@@H](Cc2ccccc2)C(N)=O)NC(=O)[C@H](CC2CCC2)NC(=O)[C@H](CCC(N)=O)NC(=O)[C@H](C)NC(=O)[C@H](Cc2c[nH]c3ccccc23)NC(=O)[C@H](Cc2ccc(O)cc2)NC(=O)[C@H](CCC(=O)O)NC1=O)[C@@H](C)O [MP-803]
[2]; pH 7, Solubility
  solubility kinetic: 1 µM (≈ 2.44 µg/mL)
[6]; 4 h
  cell entry EC50: 6.86 µM

## CC(=O)N[C@@H](CCCCN=[N+]=[N-])C(=O)NCCC(=O)N[C@@H](CC(C)C)C(=O)N[C@H](C(=O)N[C@@H](Cc1ccccc1)C(=O)N[C@]1(C)CCCCCCC=CCCC[C@@](C)(C(=O)N[C@@H](CC(C(=O)O)C(=O)O)C(=O)N[C@@H](C)C(=O)N[C@@H](C)C(=O)N[C@@H](C)C(=O)N[C@@H](C)C(=O)N[C@H](C)C(N)=O)NC(=O)[C@H](CC2CCC2)NC(=O)[C@H](CCC(N)=O)NC(=O)[C@H](C)NC(=O)[C@H](Cc2c[nH]c3ccccc23)NC(=O)[C@H](Cc2ccc(O)cc2)NC(=O)[C@H](CCC(=O)O)NC1=O)[C@@H](C)O [MP-897] (Ac-[Lys(N3)][βAla]LTF[R8]EYWAQ[Cba][S5][Gla]AAAA[dA]-NH2; staple 6-13)
EPSA; EPSA
  EPSA: 257 A^2
[1]; 0% FBS 4Hr, read-out: LDH: Cytotoxicity assay: EC50
  EC50: > 50.7 µM
[1]; 10% FBS 16Hr, read-out: LDH: Cytotoxicity assay: EC50
  EC50: > 50.7 µM
HCT116 cells; 0% FBS 4Hr
  LDH: Cytotoxicity assay: % Effect: 6.465%
HCT116 cells; 10% FBS 16Hr
  LDH: Cytotoxicity assay: % Effect: 20.53%
[2]; [9]
  solubility kinetic: 163 µM (≈ 370 µg/mL)
Human Mdm2 1–125; Binding KD
  Kd: < 0.001 µM
[7]
  EC50: 0.79 µM
Ca Ski cell line; 50 µM
  Proliferation % inhibition at 50 µM Ca Ski: -19.1%
Ca Ski cell line; read-out: Proliferation EC50 Ca Ski (Off-target)
  EC50: > 49.8 µM
[8]
  cell entry EC50: 2.27 µM
[5]
  logD: 2.25

## CC(=O)N[C@@H](CCCCN)C(=O)NCCCCCC(=O)N[C@H](C(=O)N[C@@H](CO)C(=O)N[C@@H](Cc1ccccc1)C(=O)N[C@]1(C)CCCCCCC=CCCC[C@@](C)(C(=O)N[C@@H](CCC(=O)O)C(=O)N[C@@H](CC(N)=O)C(=O)N[C@@H](Cc2ccccc2)C(N)=O)NC(=O)[C@H](CC(C)C)NC(=O)[C@H](CC(C)C)NC(=O)[C@H](C)NC(=O)[C@H](Cc2c[nH]c3ccccc23)NC(=O)[C@H](Cc2ccc(O)cc2)NC(=O)[C@H](CCC(=O)O)NC1=O)[C@@H](C)O [MP-6210]
EPSA; EPSA
  EPSA: 255 A^2
[1]; LDH: Cytotoxicity assay: EC50
  EC50: > 50.7 µM
HCT116 cells
  LDH: Cytotoxicity assay: % Effect: 13.27%
[2]; [9]
  solubility kinetic: 74 µM (≈ 155 µg/mL)
Human Mdm2 1–125; read-out: FP binding assay KD
  Kd: 0.0674 µM
[3]; 0% FBS 4Hr
  p53 reporter assay: % Effect: 115.9%
[3]; [10]
  EC50: 7.41 µM
[4]; 0% FBS 4Hr
  TETCHO: Counterscreen % Effect: 57.09%
  EC50: 44 µM
[5]
  logD: 2.55

## CC(=O)N[C@@H](CCC(=O)O)C(=O)N[C@@H](CCC(=O)O)C(=O)N[C@@H](CCC(=O)O)C(=O)N[C@@H](CCCCN=[N+]=[N-])C(=O)NCCCCCC(=O)N[C@H](C(=O)N[C@@H](CO)C(=O)N[C@@H](Cc1ccccc1)C(=O)N[C@]1(C)CCCCCCC=CCCC[C@@](C)(C(N)=O)NC(=O)[C@H](CC(C)C)NC(=O)[C@H](CC(C)C)NC(=O)[C@H](C)NC(=O)[C@H](Cc2c[nH]c3ccccc23)NC(=O)[C@H](Cc2c[nH]c3ccccc23)NC(=O)[C@H](Cc2ccc(O)cc2)NC(=O)[C@H](CCC(=O)O)NC1=O)[C@@H](C)O [MP-9662] (Ac-EEE[Lys(N3)][Ahx]TSF[R8]EYWWALL[S5]-NH2; staple 9-17)
[1]; LDH: Cytotoxicity assay EC50
  EC50: > 50 µM
[2]; [9]
  solubility kinetic: 33 µM (≈ 76 µg/mL)
[3]; 0% FBS 4Hr, read-out: p53 reporter assay EC50
  EC50: > 50 µM
[4]; 0% FBS 4Hr
  TETCHO: Counterscreen % Effect: 0.684%
  EC50: > 50.6 µM
[4]; 0% FBS 16Hr
  TETCHO: Counterscreen % Effect: 0.2782%
  EC50: > 50 µM
[8]; Nanoclick permeability assay EC50
  cell entry EC50: 0.637 µM
[6]; 4Hr
  Nanoclick permeability assay % Effect: 111.3%
[5]
  logD: 1.86

## CC(=O)N[C@@H](CCCCN=[N+]=[N-])C(=O)NCCC(=O)N[C@@H](CC(C)C)C(=O)N[C@H](C(=O)N[C@@H](Cc1ccccc1)C(=O)N[C@]1(C)CCCCCCC=CCCC[C@@](C)(C(=O)N[C@@H](CO)C(=O)N[C@@H](C)C(=O)N[C@@H](C)C(N)=O)NC(=O)[C@H](CC2CCC2)NC(=O)[C@H](CCC(N)=O)NC(=O)[C@H](C)NC(=O)[C@H](CCC(=O)O)NC(=O)[C@H](Cc2ccc(O)cc2)NC(=O)[C@H](CCC(=O)O)NC1=O)[C@@H](C)O [Peptide W7E]
[6]; Glu scan
  shift of NanoClick permeability vs MP-081: ~ 34 x
